# ChEMBL document CHEMBL1201862, “PubChem BioAssay data set” (2004)
# Active and inactive are the calls of the source.
# What was measured:
# HEK293 [1] = test: cells; details: Homo sapiens
# HEK293 [2] = test: cells; details: Homo sapiens; remark: listed apart in the source
# [3] = cytotoxicity toward NIH3T3 fibroblasts, dose response, counter-screen, cell-based, ATP luminescence, mouse fibroblasts (AID 2010); format: functional;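 note: cells exposed to compound for about 90 hours before reading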
# [4] = inhibitors of intracellular T. cruzi replication, confirmation, NIH3T3 host cells, beta-gal luminescence (AID 2044); format: functional, cell-based;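 note: intracellular parasites grown in NIH/3T3 mouse fibroblasts as host cells; luminescent beta-galactosidase reporter signal from transgenic T. cruzi replicating inside host cells; inhibitors lower the luminescence signal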
# Cysteine protease ATG4B = target: T1, Cysteine protease ATG4B (Homo sapiens, UniProt Q9Y4P1); format: functional;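 note: Fluorescence-based dose-response confirmation assay measuring inhibition of ATG4B activity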
# T1 sequence (Q9Y4P1 whole entry): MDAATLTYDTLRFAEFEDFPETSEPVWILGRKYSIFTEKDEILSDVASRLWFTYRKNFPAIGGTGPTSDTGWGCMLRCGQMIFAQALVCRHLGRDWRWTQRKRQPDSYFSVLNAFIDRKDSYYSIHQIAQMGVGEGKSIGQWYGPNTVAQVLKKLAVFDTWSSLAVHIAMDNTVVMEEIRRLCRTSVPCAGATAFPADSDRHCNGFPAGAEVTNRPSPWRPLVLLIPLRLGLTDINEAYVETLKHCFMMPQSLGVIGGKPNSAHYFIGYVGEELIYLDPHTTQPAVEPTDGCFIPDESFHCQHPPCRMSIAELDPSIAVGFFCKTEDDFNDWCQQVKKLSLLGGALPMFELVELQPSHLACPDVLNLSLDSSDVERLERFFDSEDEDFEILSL
# Phospholipase A2 = Phospholipase A2 (Homo sapiens, UniProt P04054); format: functional;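 note: confirmatory dose-response counterscreen on phospholipase A2, testing hits that came from an ultra-high-throughput screen for ATG4B inhibitors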
# Phospholipase A2, sequence (P04054 whole entry): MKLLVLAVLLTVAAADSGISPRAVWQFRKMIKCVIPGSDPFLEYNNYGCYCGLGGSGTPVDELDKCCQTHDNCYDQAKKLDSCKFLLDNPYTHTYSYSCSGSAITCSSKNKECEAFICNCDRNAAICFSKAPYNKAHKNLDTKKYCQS
# [5] = target: T2, Heat shock factor protein 1 (Mus musculus, UniProt P38532); test: inhibition of MG132-induced HSE-luciferase signal, confirmation, cell-based, NIH3T3, luminescence, dose retest (AID 2382); format: functional;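 note: NIH3T3 fibroblasts with HSF1-driven luciferase reporter stressed by proteasome inhibitor MG132; luminescence from HSF1-driven luciferase expression after 8 hours of MG132 stress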
# T2 sequence (P38532 whole entry): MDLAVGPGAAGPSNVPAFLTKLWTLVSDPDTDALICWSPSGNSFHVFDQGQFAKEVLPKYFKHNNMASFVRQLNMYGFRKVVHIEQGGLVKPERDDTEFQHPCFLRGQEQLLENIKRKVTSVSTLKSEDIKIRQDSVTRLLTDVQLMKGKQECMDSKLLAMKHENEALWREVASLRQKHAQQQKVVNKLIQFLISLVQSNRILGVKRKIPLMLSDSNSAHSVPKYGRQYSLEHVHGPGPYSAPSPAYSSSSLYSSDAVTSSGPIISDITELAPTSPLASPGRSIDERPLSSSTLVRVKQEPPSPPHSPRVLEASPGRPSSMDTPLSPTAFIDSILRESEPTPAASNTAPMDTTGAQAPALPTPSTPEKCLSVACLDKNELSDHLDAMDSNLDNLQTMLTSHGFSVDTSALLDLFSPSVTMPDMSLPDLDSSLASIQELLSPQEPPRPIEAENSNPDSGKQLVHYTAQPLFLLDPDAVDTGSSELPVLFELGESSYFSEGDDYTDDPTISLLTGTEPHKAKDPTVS
# X-box-binding protein 1 = target: T3, X-box-binding protein 1 (Homo sapiens, UniProt P17861); format: functional, Cricetulus griseus;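 note: confirmatory dose-response counter-screen serving a CHOP assay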
# T3 sequence (P17861 whole entry): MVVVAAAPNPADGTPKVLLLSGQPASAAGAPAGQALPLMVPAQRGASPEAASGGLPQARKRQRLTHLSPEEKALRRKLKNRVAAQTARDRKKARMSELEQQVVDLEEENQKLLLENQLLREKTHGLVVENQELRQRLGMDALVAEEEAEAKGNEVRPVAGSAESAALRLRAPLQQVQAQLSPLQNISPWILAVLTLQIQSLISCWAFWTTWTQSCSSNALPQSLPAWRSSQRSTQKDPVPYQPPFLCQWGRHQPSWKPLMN
# [6] = target: T4, High affinity choline transporter 1 (Homo sapiens, UniProt Q9GZV3); test: CHT inhibitors, dose response, cell-based, 5-point CRC, membrane potential dye (AID 504840); format: functional
# T4 sequence (Q9GZV3 whole entry): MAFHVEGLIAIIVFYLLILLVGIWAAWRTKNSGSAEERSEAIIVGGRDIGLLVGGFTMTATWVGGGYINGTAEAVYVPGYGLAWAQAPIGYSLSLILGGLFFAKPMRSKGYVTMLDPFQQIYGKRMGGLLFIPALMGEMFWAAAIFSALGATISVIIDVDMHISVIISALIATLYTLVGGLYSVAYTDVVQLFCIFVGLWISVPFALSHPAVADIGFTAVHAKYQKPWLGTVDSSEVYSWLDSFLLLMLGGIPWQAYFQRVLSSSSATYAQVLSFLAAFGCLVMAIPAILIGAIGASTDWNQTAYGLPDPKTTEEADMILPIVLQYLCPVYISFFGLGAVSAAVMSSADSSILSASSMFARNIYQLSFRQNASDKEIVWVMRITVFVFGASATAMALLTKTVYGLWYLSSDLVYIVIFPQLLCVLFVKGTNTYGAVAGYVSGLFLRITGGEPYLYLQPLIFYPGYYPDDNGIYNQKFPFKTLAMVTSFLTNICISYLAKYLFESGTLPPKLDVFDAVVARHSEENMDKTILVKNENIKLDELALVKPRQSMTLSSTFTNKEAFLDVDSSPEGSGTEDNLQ
# [7] = target: T5, Nucleotide-binding oligomerization domain-containing protein 1 (Homo sapiens, UniProt Q9Y239); test: NOD1 signaling inhibitors, SAR follow-up, revised (AID 2333); format: functional
# T5 sequence (Q9Y239 whole entry): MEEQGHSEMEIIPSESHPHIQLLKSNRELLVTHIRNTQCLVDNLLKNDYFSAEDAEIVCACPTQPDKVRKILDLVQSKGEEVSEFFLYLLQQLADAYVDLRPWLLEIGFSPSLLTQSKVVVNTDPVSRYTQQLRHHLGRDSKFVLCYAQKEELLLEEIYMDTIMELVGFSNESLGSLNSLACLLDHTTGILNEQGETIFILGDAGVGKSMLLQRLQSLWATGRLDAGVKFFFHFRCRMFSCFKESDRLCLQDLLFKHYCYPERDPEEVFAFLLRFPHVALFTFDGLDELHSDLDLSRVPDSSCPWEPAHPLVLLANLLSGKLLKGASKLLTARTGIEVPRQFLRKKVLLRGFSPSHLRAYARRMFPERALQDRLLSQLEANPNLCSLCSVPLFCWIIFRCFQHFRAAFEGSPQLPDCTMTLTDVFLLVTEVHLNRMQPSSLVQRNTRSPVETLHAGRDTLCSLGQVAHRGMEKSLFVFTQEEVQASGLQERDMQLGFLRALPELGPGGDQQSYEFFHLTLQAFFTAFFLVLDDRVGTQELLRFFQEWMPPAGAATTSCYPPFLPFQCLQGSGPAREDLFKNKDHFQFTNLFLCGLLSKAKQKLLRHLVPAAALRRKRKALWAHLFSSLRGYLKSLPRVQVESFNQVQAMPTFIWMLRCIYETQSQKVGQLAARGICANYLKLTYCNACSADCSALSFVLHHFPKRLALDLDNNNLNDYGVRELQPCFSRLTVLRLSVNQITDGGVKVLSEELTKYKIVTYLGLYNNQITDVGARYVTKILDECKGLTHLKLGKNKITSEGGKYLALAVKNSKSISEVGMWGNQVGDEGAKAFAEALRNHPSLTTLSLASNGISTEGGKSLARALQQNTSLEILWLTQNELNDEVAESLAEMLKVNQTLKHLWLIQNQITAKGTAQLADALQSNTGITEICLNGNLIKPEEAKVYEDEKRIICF
# Tumor necrosis factor = Tumor necrosis factor (Homo sapiens, UniProt P01375); test: TNFa-triggered NF-kB activation inhibitors, SAR follow-up, cell-based, revised (AID 2337); format: functional
# Tumor necrosis factor, sequence (P01375 whole entry): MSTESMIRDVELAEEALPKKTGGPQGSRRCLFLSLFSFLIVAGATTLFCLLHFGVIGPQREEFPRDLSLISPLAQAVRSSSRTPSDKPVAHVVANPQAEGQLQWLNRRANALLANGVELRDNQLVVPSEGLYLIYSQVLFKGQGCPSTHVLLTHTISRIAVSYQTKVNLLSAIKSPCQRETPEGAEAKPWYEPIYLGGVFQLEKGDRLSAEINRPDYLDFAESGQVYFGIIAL
# HEK293 [8] = test: cells; details: Homo sapiens; remark: listed apart in the source
# [9] = target: DNA damage-inducible transcript 3 protein (Mus musculus, UniProt P35639); format: functional, Cricetulus griseus
# DNA damage-inducible transcript 3 protein, sequence (P35639 whole entry): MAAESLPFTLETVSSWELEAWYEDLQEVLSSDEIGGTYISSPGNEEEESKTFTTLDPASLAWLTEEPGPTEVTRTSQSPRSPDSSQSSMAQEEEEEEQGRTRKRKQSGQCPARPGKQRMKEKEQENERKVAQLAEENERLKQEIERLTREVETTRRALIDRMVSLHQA
# [10] = target: Eukaryotic translation initiation factor 4E (Mus musculus, UniProt P63073); test: eIF4E–eIF4G protein interaction inhibitors, dose response, biochemical, TR-FRET (AID 855); format: functional;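 note: potency for disrupting eIF4E binding to eIF4GI seen as loss of FRET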
# Eukaryotic translation initiation factor 4E, sequence (P63073 whole entry): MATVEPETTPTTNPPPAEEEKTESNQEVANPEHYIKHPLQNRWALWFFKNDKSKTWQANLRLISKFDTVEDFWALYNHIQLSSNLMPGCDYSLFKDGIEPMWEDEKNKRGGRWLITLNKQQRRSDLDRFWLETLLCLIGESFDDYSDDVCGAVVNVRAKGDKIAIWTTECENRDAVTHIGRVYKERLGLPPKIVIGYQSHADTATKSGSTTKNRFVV
# [11] = THP-1 cell cytotoxicity, dose response, cytotoxicity control for non-replicating M. tuberculosis project (AID 489025); format: functional
# [12] = Vero E6 cell cytotoxicity, dose response, cytotoxicity control for non-replicating M. tuberculosis project, secondary assay (AID 492998); format: functional, VeroE6; details: Vero C1008
# cells = format: functional
# [13] = HepG2 cell cytotoxicity, dose response, cytotoxicity control for non-replicating M. tuberculosis project (AID 489018); format: functional; details: Mycobacterium tuberculosis
# [14] = HEp-2 cell cytotoxicity, dose response, cytotoxicity control for RSV inhibitor project, HTS (AID 2410); format: functional; details: human respiratory syncytial virus
# [15] = target: T6, Alkaline phosphatase, tissue-nonspecific isozyme (Homo sapiens, UniProt P05186); test: human TNAP enzyme inhibitors, SAR follow-up, biochemical, luminescent, dose response (AID 1056)
# T6 sequence (P05186 whole entry): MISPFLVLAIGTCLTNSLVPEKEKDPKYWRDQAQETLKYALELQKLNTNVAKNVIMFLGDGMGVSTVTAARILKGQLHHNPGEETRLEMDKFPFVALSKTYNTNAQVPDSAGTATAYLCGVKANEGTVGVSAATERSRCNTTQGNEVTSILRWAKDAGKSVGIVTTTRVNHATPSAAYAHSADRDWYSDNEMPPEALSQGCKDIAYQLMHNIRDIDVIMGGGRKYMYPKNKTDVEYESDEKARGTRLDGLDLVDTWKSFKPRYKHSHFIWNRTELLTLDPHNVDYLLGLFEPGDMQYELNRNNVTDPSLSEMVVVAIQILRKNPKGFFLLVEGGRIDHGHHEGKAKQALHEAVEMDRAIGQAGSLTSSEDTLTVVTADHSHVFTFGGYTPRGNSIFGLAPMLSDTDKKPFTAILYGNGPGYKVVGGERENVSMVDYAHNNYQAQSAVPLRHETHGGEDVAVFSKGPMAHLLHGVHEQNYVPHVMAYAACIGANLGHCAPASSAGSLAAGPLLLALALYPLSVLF
# [16] = target: Glyceraldehyde-3-phosphate dehydrogenase (Homo sapiens, UniProt P04406)
# Glyceraldehyde-3-phosphate dehydrogenase, sequence (P04406 whole entry): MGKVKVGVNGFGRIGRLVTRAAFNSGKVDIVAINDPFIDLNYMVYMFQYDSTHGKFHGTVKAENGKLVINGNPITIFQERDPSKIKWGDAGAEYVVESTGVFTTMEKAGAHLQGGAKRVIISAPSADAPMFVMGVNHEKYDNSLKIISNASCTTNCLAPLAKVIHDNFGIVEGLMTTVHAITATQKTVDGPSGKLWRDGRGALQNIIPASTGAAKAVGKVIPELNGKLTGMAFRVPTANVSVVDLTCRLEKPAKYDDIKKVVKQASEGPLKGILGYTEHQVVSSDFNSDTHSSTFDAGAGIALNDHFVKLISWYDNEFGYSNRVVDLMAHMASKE
# [17] = growth suppression of PTEN-null colon cells, dose response, cell-based, HCT116 PTEN knockout (AID 1047); format: functional;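 note: HCT116 colon tumor cells with PTEN knocked out; cells exposed to compound for 60 hours before readout; potency for loss of cell viability measured by luminescence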
# [18] = growth suppression of beta-catenin-knockout colon cells, dose response, cell-based, HCT116, human colon tumor (AID 1045); format: functional;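 note: HCT116 colon tumor cells with beta catenin knocked out; cells exposed to compound for 60 hours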
structure (smiles),measurement,setting,value
N#CC1=C(N)S[C@H](C(=O)C23CC4CC(CC(C4)C2)C3)[C@H]1c1ccncc1,EC50,HEK293 [1],> 59.7 µM (inactive)
same,EC50,HEK293 [2],> 59.7 µM (inactive)
CC(C)(C)N1C(=O)[C@H]2[C@@H](c3ccc(Br)cc3)N3C(=O)N(c4cccc(Br)c4)C(=O)[C@@]3(Cc3ccccc3)[C@H]2C1=O,EC50,[3],> 60 µM (not active)
same,EC50,HEK293 [1],> 59.7 µM (inactive)
same,EC50,[4],2.32 µM (active)
same,EC50,HEK293 [2],> 59.7 µM (inactive)
Cc1ccc(C(=O)Nc2nc(-c3ccco3)c(-c3ccco3)s2)o1,IC50,Cysteine protease ATG4B,9.23 µM (active)
same,IC50,Phospholipase A2,5.79 µM (active)
O=C(COC(=O)Cc1c(Cl)cccc1Cl)Nc1ccc(OC(F)(F)F)cc1,EC50,[5],> 195 µM (not active)
same,Absolute IC50 (XBP1),X-box-binding protein 1,10 µM
CCOC(=O)C1CCCN(C(=O)c2csc(-c3ccc4c(c3)CCO4)n2)C1 (configuration not stated),IC50,[6],13.2 µM (active)
CCn1c(=O)cc(OCC(=O)NC(C)c2ccc3c(c2)OCCO3)c2ccccc21 (configuration not stated),IC50,[6],15.8 µM (active)
CC1CCc2c(sc(NC(=O)c3ccc(Br)cc3)c2C(=O)O)C1 (configuration not stated),IC50,[7],0.375 µM (active)
same,IC50,Tumor necrosis factor,6.82 µM (active)
same,IC50,HEK293 [8],4.72 µM (active)
CC(C)=CCc1c(O)c(CC=C(C)C)c2c(c1O)C(=O)CC(c1ccc(O)cc1)O2 (configuration not stated),Absolute IC50 (XBP1),X-box-binding protein 1,10 µM
Cc1cc(NC(=O)CSc2nc3cc4c(cc3c(=O)n2CCc2ccccc2)OCO4)no1,Absolute IC50 (CHOP),[9],10 µM
same,Absolute IC50 (XBP1),X-box-binding protein 1,10 µM
CCOc1cc(C2c3c(C)n[nH]c3C(=O)N2c2ccc(C)cc2)ccc1O (configuration not stated),IC50,[10],> 64 µM (inactive)
O=C(Nc1nnc(C2CC2)o1)c1ccc(S(=O)(=O)N2CCCCC2)cc1,CC50,[11],> 40 µM (active)
same,CC50,[12],11.5 µM (active)
same,IC50,cells,10.3 µM (active)
same,CC50,[13],> 20 µM (active)
Cc1ccc(NCC(=O)N/N=C/c2cccc(Oc3ccccc3)c2)cc1,Absolute IC50 (CHOP),[9],10 µM
same,Absolute IC50 (XBP1),X-box-binding protein 1,< 10 µM
CC(C)CCNCC(O)CON=C1c2ccccc2-c2ccccc21 (configuration not stated),CC50,[14],12.6 µM (active)
same,CC50,[11],13.8 µM (active)
same,IC50,cells,16.8 µM (active)
same,CC50,[13],14.4 µM (active)
CC1CCN(C(=S)c2ccccc2O)CC1,IC50,[10],> 64 µM (inactive)
COc1cccc(Cc2nnc(N3C(=O)c4ccccc4C3=O)[nH]2)c1,IC50,[15],1.19 µM (active)
same,IC50,[16],> 100 µM (not active)
O=C(Nc1sc2c(c1C(=O)O)CCCC2)c1ccc(Br)cc1,IC50,[7],0.77 µM (active)
same,IC50,Tumor necrosis factor,2.25 µM (active)
same,IC50,HEK293 [8],> 20 µM (inactive)
COc1ccc(F)c(-c2nc(CN3CCN(c4ncnc5ccccc45)CC3)c(C)o2)c1,IC50,[7],3.93 µM (active)
same,IC50,Tumor necrosis factor,3.8 µM (active)
same,IC50,HEK293 [8],13.7 µM (active)
CCOC(=O)c1c(NC(=O)CSc2nnc(-c3c[nH]c4ccccc34)n2CCOC)sc2c1CCCCC2,EC50,[17],21.3 µM (active)
same,EC50,HEK293 [1],> 59.7 µM (inactive)
same,EC50,[18],26.3 µM (active)
same,EC50,HEK293 [2],> 59.7 µM (inactive)
